Source: patent US10202345B2, “Substituted azaspiro(4.5)decane derivatives” (priority 2014, dated 2019)

target: human μ opiate receptor (Homo sapiens, UniProt P35372); experiment: μ opiate receptor binding assay with [3H]-naloxone (WGA-SPA beads); settings: mean
Sequence (P35372 whole entry): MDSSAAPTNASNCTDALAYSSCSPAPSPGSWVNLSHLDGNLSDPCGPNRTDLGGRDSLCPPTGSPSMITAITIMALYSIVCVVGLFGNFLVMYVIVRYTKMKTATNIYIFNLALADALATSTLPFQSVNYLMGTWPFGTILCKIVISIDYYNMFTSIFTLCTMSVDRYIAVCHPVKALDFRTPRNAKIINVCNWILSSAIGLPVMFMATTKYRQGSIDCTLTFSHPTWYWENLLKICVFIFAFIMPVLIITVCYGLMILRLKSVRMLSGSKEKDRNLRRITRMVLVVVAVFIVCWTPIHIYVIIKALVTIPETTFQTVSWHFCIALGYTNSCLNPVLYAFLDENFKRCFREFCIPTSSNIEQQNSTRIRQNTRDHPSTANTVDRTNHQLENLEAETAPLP

SMILES | Ki [µM]
CN(C)C1(Cc2ccccc2)CCC2(CCNC2=O)CC1 (single isomer, unassigned) [Example 1, 8-Benzyl-8-(dimethyl-amino)-3-azaspiro[4.5]decan-4-one] | 1.06
CN(C)C1(Cc2ccccc2)CCC2(CCNC2=O)CC1 (single isomer, unassigned) [Example 2, 8-Benzyl-8-(dimethyl-amino)-3-azaspiro[4.5]decan-4-one] | 4.79
CN(C)C1(Cc2ccccc2)CCC2(CCNC2)CC1 (single isomer, unassigned) [Example 3, (8-Benzyl-3-azaspiro[4.5]decan-8-yl)-dimethylamine] | 1.83
CN(C)C1(Cc2ccccc2)CCC2(CCNC2)CC1 (single isomer, unassigned) [Example 4, (8-Benzyl-3-azaspiro[4.5]decan-8-yl)-dimethylamine] | 0.92
CN1CCC2(CCC(Cc3ccccc3)(N(C)C)CC2)C1 (single isomer, unassigned) [Example 5, (8-Benzyl-3-methyl-3-azaspiro[4.5]decan-8-yl)-dimethylamine] | 1.45
CN1CCC2(CCC(Cc3ccccc3)(N(C)C)CC2)C1 (single isomer, unassigned) [Example 6, (8-Benzyl-3-methyl-3-azaspiro[4.5]decan-8-yl)-dimethylamine] | 1.1
CCCCN1CCC2(CCC(C(=O)c3ccccc3)(N(C)C)CC2)C1 (single isomer, unassigned) [Example 107, [3-Butyl-8-(dimethylamino)-3-azaspiro[4.5]decan-8-yl]-phenylmethanone] | 0.95
CN(C)C1(CC2CCCCC2)CCC2(CCNC2=O)CC1 (centres unmarked) [Example 92, 8-(Cyclohexylmethyl)-8-dimethylamino-3-azaspiro[4.5]decan-4-one] | 3590
CN1CCC2(CCC(Cc3ccccc3)(N(C)C)CC2)C1=O (centres unmarked) [Example 118] | 5.5
CN1CCC2(CCC(Cc3ccccc3)(N(C)C)CC2)C1=O (centres unmarked) [Example 119] | 3.57
CN1CC2(CCC(C3CCCC3)(N(C)C)CC2)CC1=O (centres unmarked) [Example 282] | 0.295
CN(C)C1(C2CCCC2)CCC2(CCN(C(=O)C3COC3)C2)CC1 (centres unmarked) [Example 291] | 0.175

system: not given; experiment: not given; settings: not given

SMILES | melting point [°C]
CN(C)C1(Cc2ccccc2)CCC2(CCNC2=O)CC1 (single isomer, unassigned) [Example 2, 8-Benzyl-8-(dimethyl-amino)-3-azaspiro[4.5]decan-4-one] | 202 to 204
CN1CCC2(CCC(Cc3ccccc3)(N(C)C)CC2)C1 (single isomer, unassigned) [Example 6, (8-Benzyl-3-methyl-3-azaspiro[4.5]decan-8-yl)-dimethylamine] | 57 to 58
